Patent US8614203B2, “Methods for the treatment of a central nervous system injury via a tapered administration protocol” (Emory University, priority 2005, dated 2013)

Columns and labels:
traumatic brain injury [1] = experiment: Example 2: dose response, Morris water maze after TBI, cyclodextrin vehicle; type: in vivo
Protocol: Beginning one week after surgery, spatial learning ability was assessed in the Morris water maze (MWM) task described previously. Each animal was tested for a total of 10 days in two 5-day trial blocks (acquisition and retention respectively). Animals were placed in the pool (nose facing the pool-wall) at one of four randomly determined starting positions (e.g.: N, S, E, W). Each rat was allowed to swim freely in the pool until it found the hidden platform or until 90 seconds had elapsed. […] Once on the platform, animals were allowed to rest for 10 seconds and then removed from the pool and placed near a heat lamp for warmth. Each rat was given two trials per day with a 20-second intertrial interval (ITI). The dependent measures for this task were latency to find the hidden platform and swim strategy (e.g., percent of time spent in the inner vs. outer annuli). Swim speed measures were recorded daily in order to delineate motor dysfunction from learning impairment.
(§1) Surgery to induce a traumatic brain injury was performed as outlined in Example 1. Behavior testing using the Morris Water Maize was performed as outlined in Example 1 and the methods for the tactical adhesive removal were performed.

traumatic brain injury [2] = experiment: Example 2: dose response, sticker removal task (sensory neglect) after TBI, cyclodextrin vehicle; type: in vivo
Protocol: […] Pairs of circular adhesive papers (2 cm dia) were attached to the distal-radial areas of each forepaw and the rats' latencies to remove the stimuli were recorded. Each rat was given four trials (2-min ITI) per testing period with a maximum trial length of 2 minutes.
as §1

GFAP = type: in vivo; details: acute withdrawal, lesion (AWL) vs VL; three weeks post-injury
Source text: 60 male Sprague-Dawley rats weighing 290-310 g at the time of injury were used in this experiment. Food and water were provided ad libidum before and after surgery. Animals were handled and weighed daily from their arrival, seven days pre-surgery, to brain extraction three weeks post-surgery. Animals were handled in squads of 12, with n=10 per experimental condition. All animal procedures were approved by the Emory University Animal Care and Use Committee, Protocol #131-2002.
Isofluorane anesthesia was induced for four minutes and 45 seconds at 5% and maintained at 2.5%. Normal body temperature was maintained with a surgical heating pad placed beneath the sterile dressings. The scalp incision area was shaved and sterilized with iodine and isopropanol. A midline incision was made along the scalp and the fascia cleared to expose the surface of the skull. Medial, lateral, and dorsal stereotaxic coordinates were determined at bregma, and a 5-7 mm diameter bilateral craniotomy was performed mid-sagitally, 3 mm anterior to bregma. […]
All animals were decapitated following a lethal 1 mL injection of Nembutal at three weeks post-injury. […] Thionin-stained sections from 4.2-2.2 mm anterior to bregma were identified and analyzed for lesion area using Kodak ID software. Total brain area was determined by determined by normalizing to the volume of sham brain sections. […]

BBB = details: in vitro (Betz et al. 1990); cited from earlier work

CC(=O)[C@H]1CC[C@H]2[C@@H]3CCC4=CC(=O)CC[C@]4(C)[C@H]3CC[C@]12C [progesterone, pregn-4-ene-3,20-dione]
Morris water maze performance (traumatic brain injury [1]; high dose 32 mg/kg in a cyclodextrin-containing vehicle): did not show any beneficial effect | Morris water maze performance (traumatic brain injury [1]; low dose 8 mg/kg in a cyclodextrin-containing vehicle): consistent improvement in Morris water maze performance | Morris water maze performance (traumatic brain injury [1]; moderate dose 16 mg/kg in a cyclodextrin-containing vehicle): consistent improvement in Morris water maze performance | sticker removal task (sensory neglect), initial (traumatic brain injury [2]; all doses (8, 16, 32 mg/kg), initially): initially produce behavioral recovery | sticker removal task (sensory neglect), later course (traumatic brain injury [2]; high dose (32 mg/kg)): degraded to lesion control levels | sticker removal task (sensory neglect), later course (traumatic brain injury [2]; moderate dose (16 mg/kg), day 21 post-injury): improved to sham levels by day 21 post-injury | GFAP immunofluorescence luminosity (reactive astrocytes) (GFAP): upregulated in VL (A) animals over AWL (B) animals | permeability of the BBB (BBB): reduce the permeability of the BBB to macromolecules, but not ions
